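Exposure lasted 48 hours, with cells grown in 96-well plates and compounds tested at five concentrations. GI50 marks 50% less growth. TGI is the concentration that stops growth completely.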
Key:
Assay in all cases: inhibition of tumour cell growth, NCI panel, 48 h
[1] = test system: TK-10 renal
[2] = test system: CCRF-CEM leukemia
[3] = test system: HCT-15 colon
[4] = test system: SNB-75 CNS
[5] = test system: SR leukemia
[6] = test system: HOP-92 NSCLC
[7] = test system: NCI/ADR-RES ovarian
[8] = test system: LOX IMVI melanoma
[9] = test system: PC-3 prostate
[10] = test system: U251 CNS
[11] = test system: M14 melanoma
[12] = test system: MDA-MB-231 breast
[13] = test system: UO-31 renal
[14] = test system: NCI-H460 lung
[15] = test system: COLO 205 colon
[16] = test system: SK-MEL-5 melanoma
[17] = test system: RPMI-8226 leukemia
[18] = test system: MDA-MB-435
[19] = test system: 786-0 renal
[20] = test system: EKVX NSCLC
[21] = test system: K-562 leukemia
[22] = test system: OVCAR-4 ovarian
[23] = test system: SW-620 colon
[24] = test system: MOLT-4 leukemia
[25] = test system: NCI-H226 lung
[26] = test system: ACHN renal
[27] = test system: DU-145 prostate
[28] = test system: SNB-19 CNS
[29] = test system: HOP-62 NSCLC
[30] = test system: UACC-257 melanoma
[31] = test system: OVCAR-3 ovarian
[32] = test system: KM12 colon
[33] = test system: MCF7 breast
[34] = test system: UACC-62 melanoma
[35] = test system: SN12C renal
[36] = test system: OVCAR-8 ovarian
[37] = test system: HCC-2998 colon
[38] = test system: HT29 colon
[39] = test system: A549 NSCLC
[40] = test system: OVCAR-5 ovarian
[41] = test system: RXF 393 renal
[42] = test system: HL-60(TB) leukemia
[43] = test system: SK-OV-3 ovarian
[44] = test system: NCI-H522 lung
[45] = test system: CAKI-1 renal
[46] = test system: SK-MEL-28 melanoma
[47] = test system: BT-549 breast
[48] = test system: SK-MEL-2 melanoma
[49] = test system: HCT-116 colon
[50] = test system: SF-295 CNS
[51] = test system: T-47D breast
[52] = test system: SF-539 CNS
[53] = test system: SF-268 CNS
[54] = test system: NCI-H23 lung
[55] = test system: A498 renal
[56] = test system: HS 578T breast
[57] = test system: IGROV1 ovarian
[58] = test system: MALME-3M melanoma

O=c1c2ccccc2c(/C=N\NC2=NCCN2)c2oc3ccccc3n12 showed a GI50 [1] of 16.3 µM, a TGI [1] of 31.3 µM and a GI50 [2] of 32.2 µM. The TGI [2] was greater than 100 µM, the GI50 [3] was 14.7 µM and the TGI [3] was 62.1 µM. It also gave a GI50 [4] of 19.4 µM, a TGI [4] of 42 µM and a GI50 [5] of 6.12 µM. The TGI [5] was greater than 100 µM, the GI50 [6] was 22.5 µM and the TGI [6] was 51.1 µM. It also gave a GI50 [7] greater than 100 µM, a TGI [7] greater than 100 µM and a GI50 [8] of 13.2 µM. For the same compound, the TGI [8] was 31.3 µM, the GI50 [9] was 23 µM and the TGI [9] was 45.6 µM. The GI50 [10] was 18.7 µM, the TGI [10] was 51.2 µM and the GI50 [11] was 34.4 µM. The TGI [11] was greater than 100 µM, the GI50 [12] was 16.7 µM and the TGI [12] was 35 µM. It also gave a GI50 [13] of 18.8 µM, a TGI [13] of 70.9 µM and a GI50 [14] of 17.8 µM. The TGI [14] was 39.5 µM, the GI50 [15] was 18.8 µM and the TGI [15] was 38.7 µM. For the same compound, the GI50 [16] was 21.3 µM, the TGI [16] was 41.7 µM and the GI50 [17] was 28.6 µM. It also gave a TGI [17] greater than 100 µM, a GI50 [18] of 38 µM and a TGI [18] greater than 100 µM. It also gave a GI50 [19] of 33.9 µM, a TGI [19] greater than 100 µM and a GI50 [20] of 16.5 µM. For the same compound, the TGI [20] was 37.2 µM, the GI50 [21] was 22.2 µM and the TGI [21] was greater than 100 µM. It also gave a GI50 [22] of 23.7 µM, a TGI [22] of 65.7 µM and a GI50 [23] of 22.1 µM. For the same compound, the TGI [23] was 74 µM, the GI50 [24] was 23.8 µM and the TGI [24] was greater than 100 µM. The GI50 [25] was 19.2 µM, the TGI [25] was 48.2 µM and the GI50 [26] was 14.2 µM. The TGI [26] was 29.9 µM, the GI50 [27] was 15 µM and the TGI [27] was 34.7 µM. It also gave a GI50 [28] of 22.5 µM, a TGI [28] of 51.3 µM and a GI50 [29] of 28.6 µM. The TGI [29] was greater than 100 µM, the GI50 [30] was greater than 100 µM and the TGI [30] was greater than 100 µM. For the same compound, the GI50 [31] was 18.6 µM, the TGI [31] was 34.3 µM and the GI50 [32] was 16.7 µM. The TGI [32] was 34.4 µM, the GI50 [33] was 18.5 µM and the TGI [33] was 40.8 µM. It also gave a GI50 [34] of 16.3 µM, a TGI [34] of 33.4 µM and a GI50 [35] of 11.2 µM. For the same compound, the TGI [35] was 27.7 µM, the GI50 [36] was 19.4 µM and the TGI [36] was 45.6 µM. For the same compound, the GI50 [37] was 12.9 µM, the TGI [37] was 34.1 µM and the GI50 [38] was 20.7 µM. It also gave a TGI [38] greater than 100 µM, a GI50 [39] of 16.4 µM and a TGI [39] of 60.3 µM. For the same compound, the GI50 [40] was 19.8 µM, the TGI [40] was 37.1 µM and the GI50 [41] was 21.4 µM. The TGI [41] was 40.2 µM, the GI50 [42] was 25.3 µM and the TGI [42] was 92.6 µM. For the same compound, the GI50 [43] was 19.5 µM, the TGI [43] was 40.8 µM and the GI50 [44] was 16.2 µM. For the same compound, the TGI [44] was 67.6 µM, the GI50 [45] was 27.2 µM and the TGI [45] was greater than 100 µM. It also gave a GI50 [46] of 20.7 µM, a TGI [46] of 49 µM and a GI50 [47] of 31.3 µM. It also gave a TGI [47] greater than 100 µM, a GI50 [48] of 21.8 µM and a TGI [48] of 87.6 µM. It also gave a GI50 [49] of 19.1 µM, a TGI [49] greater than 100 µM and a GI50 [50] of 13.5 µM. For the same compound, the TGI [50] was 27.8 µM, the GI50 [51] was 17.6 µM and the TGI [51] was 36 µM. It also gave a GI50 [52] of 18.1 µM, a TGI [52] of 36.3 µM and a GI50 [53] of 57.8 µM. It also gave a TGI [53] greater than 100 µM, a GI50 [54] of 15.7 µM and a TGI [54] of 37.6 µM.

Cc1ccc2cccc(OC(=O)Nc3cccc(C(F)(F)F)c3)c2n1 was tested, and the GI50 [1] was 3.87 µM, the TGI [1] was 18.2 µM and the GI50 [2] was 2.86 µM. For the same compound, the TGI [2] was 19.2 µM, the GI50 [3] was 3.14 µM and the TGI [3] was 11.3 µM. The GI50 [4] was 2.39 µM, the TGI [4] was 11.7 µM and the GI50 [5] was 5.6 µM. For the same compound, the TGI [5] was greater than 100 µM, the GI50 [6] was 2.21 µM and the TGI [6] was 6.66 µM. The GI50 [7] was 3.96 µM, the TGI [7] was 33.3 µM and the GI50 [9] was 2.74 µM. It also gave a TGI [9] of 9.79 µM, a GI50 [10] of 3.07 µM and a TGI [10] of 12.2 µM. It also gave a GI50 [11] of 4.06 µM, a TGI [11] of 16.2 µM and a GI50 [12] of 2.37 µM. For the same compound, the TGI [12] was 7.26 µM, the GI50 [13] was 2.4 µM and the TGI [13] was 8.99 µM. The GI50 [14] was 2.84 µM, the TGI [14] was 7.8 µM and the GI50 [15] was 3.47 µM. For the same compound, the TGI [15] was 10.3 µM, the GI50 [55] was 2590 nM and the TGI [55] was 9.46 µM. The GI50 [16] was 7.41 µM, the TGI [16] was 20.1 µM and the GI50 [17] was 2.52 µM. The TGI [17] was 7.21 µM, the GI50 [18] was 2.91 µM and the TGI [18] was 10.9 µM. It also gave a GI50 [19] of 4.82 µM, a TGI [19] of 22.2 µM and a GI50 [56] of 3.53 µM. The TGI [56] was 18.9 µM, the GI50 [21] was 3.63 µM and the TGI [21] was 17.8 µM. The GI50 [22] was 2.09 µM, the TGI [22] was 10.3 µM and the GI50 [57] was 4.29 µM. For the same compound, the TGI [57] was 17.4 µM, the GI50 [23] was 3.46 µM and the TGI [23] was 13.3 µM. The GI50 [24] was 3.61 µM, the TGI [24] was 24.2 µM and the GI50 [25] was 3.61 µM. It also gave a TGI [25] of 14.1 µM, a GI50 [26] of 3.04 µM and a TGI [26] of 12.4 µM. For the same compound, the GI50 [27] was 3.95 µM, the TGI [27] was 82.4 µM and the GI50 [28] was 2.89 µM. For the same compound, the TGI [28] was 12.5 µM, the GI50 [29] was 5.83 µM and the TGI [29] was 18.6 µM. It also gave a GI50 [30] of 3.4 µM, a TGI [30] of 12.9 µM and a GI50 [31] of 3.35 µM. For the same compound, the TGI [31] was 9.61 µM, the GI50 [32] was 3.19 µM and the TGI [32] was 10.9 µM. It also gave a GI50 [33] of 2.26 µM, a TGI [33] of 8.05 µM and a GI50 [34] of 3.05 µM. For the same compound, the TGI [34] was 11.2 µM, the GI50 [35] was 2.66 µM and the TGI [35] was 8.18 µM. For the same compound, the GI50 [36] was 3.5 µM, the TGI [36] was 14.9 µM and the GI50 [37] was 5.29 µM. For the same compound, the TGI [37] was 18.5 µM, the GI50 [38] was 3.45 µM and the TGI [38] was 12 µM. It also gave a GI50 [39] of 3.44 µM, a TGI [39] of 13.4 µM and a GI50 [40] of 6.44 µM. For the same compound, the TGI [40] was 32.1 µM, the GI50 [41] was 5.3 µM and the TGI [41] was 21.9 µM. It also gave a GI50 [42] of 5.41 µM, a TGI [42] of 38.4 µM and a GI50 [43] of 4.37 µM. It also gave a TGI [43] of 16.2 µM, a GI50 [45] of 3.25 µM and a TGI [45] of 11.8 µM. For the same compound, the GI50 [46] was 4.34 µM, the TGI [46] was 16.3 µM and the GI50 [47] was 10.7 µM. It also gave a TGI [47] of 26.8 µM, a GI50 [48] of 3.47 µM and a TGI [48] of 12.1 µM. The GI50 [49] was 3.27 µM, the TGI [49] was 11.1 µM and the GI50 [50] was 2.5 µM. It also gave a TGI [50] of 7.25 µM, a GI50 [51] of 3.05 µM and a TGI [51] of 13.4 µM. The GI50 [52] was 5.42 µM, the TGI [52] was 18.1 µM and the GI50 [53] was 4.26 µM. The TGI [53] was 18.3 µM, the GI50 [58] was 3.03 µM and the TGI [58] was 10 µM. The GI50 [54] was 2.78 µM and the TGI [54] was 10 µM.

From PubChem BioAssay (NCI)
